Consider three compounds from US7049303B2, “Inhibition of viruses” (Medical Research Council, priority 2001, dated 2006).

Where two headings read alike, the source gives them in different places.

The test system of test [1] is human T-lymphocytes (CEM/O cells). In words: Toxicity: inhibition of proliferation of human T-lymphocytes (CEM/O cells). The format is cell-based. Particulars: read-out: IC50 (50% inhibitory concentration), proliferation of CEM/O cells. As for the experimental part: Following synthesis, the various compounds were tested in vitro for toxicity, by measuring the IC50 (i.e. the concentration which caused 50% inhibition) in respect of the inhibitory effects of the compounds on the proliferation of human T-lymphocytes (CEM/O cells).

A further test has as its system HIV-1(IIIB). Description: Serial passage of HIV-1 infected CEM cell cultures with sub-toxic drug, cytopathic effect (giant cell formation). The format is cell-based. To be noted: for percentage of cytopathic effect (giant cell formation), passage number 1: passage 1; for percentage of cytopathic effect (giant cell formation), passage number 1 / percentage of cytopathic effect (giant cell formation), passage number 2 / percentage of cytopathic effect (giant cell formation), passage number 3 / percentage of cytopathic effect (giant cell formation), passage number 4 / percentage of cytopathic effect (giant cell formation), passage number 5 / percentage of cytopathic effect (giant cell formation), passage number 6 / percentage of cytopathic effect (giant cell formation), passage number 7: subcultivation every 5 days; for percentage of cytopathic effect (giant cell formation), passage number 2: passage 2; for percentage of cytopathic effect (giant cell formation), passage number 3: passage 3; for percentage of cytopathic effect (giant cell formation), passage number 4: passage 4; for percentage of cytopathic effect (giant cell formation), passage number 5: passage 5; for percentage of cytopathic effect (giant cell formation), passage number 6: passage 6; for percentage of cytopathic effect (giant cell formation), passage number 7: passage 7. The procedure:
HIV-1 infected CEM cells were subcultured every 4–5 days in the presence of sub-toxic concentrations (in the range of 10–20% of their respective IC50 value) of the compounds under test. At each sub-culture, cell-free supernatant (10–20 μl) was transferred to fresh 1 ml cell cultures. At regular intervals the cultures were inspected microscopically to assess the extent of any cytopathic effect (giant cell formation). As an alternative, it is also possible to perform an immunoassay to quantify viral p24 production.
The preliminary results for up to 7 passages are shown below in Table 3.
A general note: Protection from cytopathic effect is a common read-out in antiviral testing.

Turning to `Nc1nc(NO)c2ncn([C@@H]3O[C@H](CO)[C@@H](O)[C@H]3O)c2n1` [JA30, 2-amino-N^6-hydroxyadenosine], the IC50 in test [1] (T-lymphocyte) turned out to be 78 ± 3 µM. Further, in the test on HIV-1(IIIB) (10 μM), the “percentage of cytopathic effect (giant cell formation), passage number 1” value (“percentage … passage number 1” for short) was 100%; the “percentage of cytopathic effect (giant cell formation), passage number 2” value (“percentage … passage number 2” below) came out at 100%; the “percentage of cytopathic effect (giant cell formation), passage number 3” value (shortened to “percentage … passage number 3”) was found to be 25%; the “percentage of cytopathic effect (giant cell formation), passage number 4” value (“percentage … passage number 4” for short) stood at 100%. For the same compound, in the test on HIV-1(IIIB) (10 μM), the “percentage of cytopathic effect (giant cell formation), passage number 5” value (“percentage … passage number 5” below) was 100%; the “percentage of cytopathic effect (giant cell formation), passage number 6” value (shortened to “percentage … passage number 6”) turned out to be 100%; the “percentage of cytopathic effect (giant cell formation), passage number 7” value (“percentage … passage number 7” for short) is reported as 50%.

With `O=c1nc(NO)ccn1[C@@H]1O[C@H](CO)[C@@H](O)[C@H]1O` [JA29, N^4-hydroxycytidine, reference compound], the IC50 in test [1] (T-lymphocyte) turned out to be 16 ± 1 µM. Moreover, in the test on HIV-1(IIIB) (0.8 μM), the “percentage … passage number 1” value amounted to 100%; the “percentage … passage number 2” value was found to be 100%; the “percentage … passage number 3” value is given as 12%; the “percentage … passage number 4” value is recorded as 100%. Moreover, in the test with HIV-1(IIIB) (0.8 μM), the “percentage … passage number 5” value came to 100%; the “percentage … passage number 6” value turned out to be 100%; the “percentage … passage number 7” value was determined as 100%. Besides, in the test with HIV-1(IIIB) (2 μM), the “percentage … passage number 1” value turned out to be 100%; the “percentage … passage number 2” value turned out to be 100%; the “percentage … passage number 3” value was 25%; the “percentage … passage number 4” value came out at 100%. In the test on HIV-1(IIIB) (2 μM), the “percentage … passage number 5” value is 100%; the “percentage … passage number 6” value was 100%; the “percentage … passage number 7” value came to 100%. In addition, the “antiviral activity (inhibition of HIV replication) in words” value with HIV-1(IIIB) (HIV-1 infected CEM cells, sub-toxic concentrations, up to 7 passages) is listed as “does not demonstrate any antiviral activity”.

Take `NNc1nc(N)nc2c1ncn2[C@@H]1O[C@H](CO)[C@@H](O)[C@H]1O` [JA24, N^6-amino-9-β-D-ribofuranosyl-2,6-diaminopurine]: in test [1], the IC50 was determined as 62 ± 6 µM. For the same compound, in the test on HIV-1(IIIB) (4 μM), the “percentage … passage number 1” value was found to be 100%; the “percentage … passage number 2” value is 100%; the “percentage … passage number 3” value is given as 19%; the “percentage … passage number 4” value worked out at 100%. Besides, in the test on HIV-1(IIIB) (4 μM), the “percentage … passage number 5” value is on record as 100%; the “percentage … passage number 6” value was determined as 100%; the “percentage … passage number 7” value is 12%. For the same compound, in the test with HIV-1(IIIB) (10 μM), the “percentage … passage number 1” value came out at 100%; the “percentage … passage number 2” value was 100%; the “percentage … passage number 3” value was 25%; the “percentage … passage number 4” value stood at 100%. In the test with HIV-1(IIIB) (10 μM), the “percentage … passage number 5” value came to 100%; the “percentage … passage number 6” value was 100%; the “percentage … passage number 7” value is recorded as 25%.
